Earlier results in patent US20180008598A1, “ANTIBACTERIAL NASAL COMPOSITIONS AND RELATED METHODS” (Xlear, Inc., priority 2016, published 2018).

Legend:
Streptococcus pneumonia = settings: in vitro, during its logarithmic growth phase
dental caries = settings: regular consumption

In the case of `OC[C@@H](O)[C@H](O)[C@@H](O)CO` [Xylitol, xylitol], the “growth of Streptococcus pneumonia” value (Streptococcus pneumonia) is given as “inhibit the growth” and the “incidence of dental caries” value (dental caries) is given as “reduce the incidence of dental caries”.
